One may read the melting point as the temperature, or range, at which the solid turns liquid.

System in one series: not given
Test: not given
Conditions: not given
With `CC(=O)c1nn(-c2ccc(F)cc2)c(=O)c(OCc2cccnc2)c1C.Cl`, the melting point was in the range of 153 to 156 °C.
On the same count and under the same terms, to `CC(=O)c1nn(-c2ccc(Cl)cc2)c(=O)c(Sc2ccc(Cl)cc2)c1C` [Compound 1-29, 6-acetyl-2-(4-chlorophenyl)-4-(4-chlorophenylthio)-5-methyl-3(2H)-pyridazinone] belongs 165 to 166 °C; to `CC(=O)c1nn(-c2cccc(Cl)c2)c(=O)c(Sc2ccccc2)c1C` [Compound 1-64, 6-acetyl-2-(3-chlorophenyl)-5-methyl-4-phenylthio-3(2H)-pyridazinone], 99 to 100 °C.
Regarding `CC(=O)c1nn(-c2cccc(Cl)c2)c(=O)c(S(=O)(=O)c2ccccc2)c1C` [Compound 1-83, 6-acetyl-2-(3-chlorophenyl)-5-methyl-4-phenylsulfonyl-3(2H)-pyridazinone], the melting point was 175 to 176 °C.
`CC(=O)c1nn(-c2cccc(Cl)c2)c(=O)c(-c2cccs2)c1C` [Compound 1-97, 6-acetyl-2-(3-chlorophenyl)-5-methyl-4-(2-thienyl)-3(2H)-pyridazinone]: the melting point was 116 to 117 °C.
Same read-out and setting: the result for `CC(=O)c1nn(-c2cccc(Cl)c2)c(=O)c(C(N)=S)c1C` [Compound 1-153, 6-acetyl-4-(aminothioxomethyl)-2-(3-chlorophenyl)-5-methyl-3(2H)-pyridazinone] reads 195 to 197 °C.
Same read-out and setting: to `CC(=O)c1nn(-c2cccc(Cl)c2)c(=O)c(-c2nccs2)c1C` [Compound 1-155, 6-acetyl-2-(3-chlorophenyl)-5-methyl-4-(1,3-thiazol-2-yl)-3(2H)-pyridazinone] belongs 158 to 160 °C; to `CC(=O)c1nn(-c2ccc(F)cc2)c(=O)c(Sc2ccc(NS(C)(=O)=O)cc2)c1C` [Compound 4-01, 6-acetyl-2-(4-fluorophenyl)-5-methyl-4-(4-methylsulfonylaminophenylthio)-3(2H)-pyridazinone], 182 to 184 °C.
Still for that read-out and setting: to `CC(=O)c1nn(-c2ccc(F)cc2)c(=O)c(Sc2ccc(N(C)C)cc2)c1C` [Compound 4-04, 6-acetyl-4-(4-dimethylaminophenylthio)-2-(4-fluorophenyl)-5-methyl-3(2H)-pyridazinone] belongs 172 to 174 °C; to `CC(=O)c1nn(-c2ccc(F)cc2)c(=O)c(SCCN2CCOCC2)c1C` [Compound 5-04, 6-acetyl-2-(4-fluorophenyl)-5-methyl-4-(2-morpholin-4-ylethylthio)-3(2H)-pyridazinone], 92 to 93 °C; to `Cc1c(C(C)O)nn(-c2cccc(Cl)c2)c(=O)c1Sc1ccccc1` (centres unmarked) [Compound 6-01, 2-(3-chlorophenyl)-6-(1-hydroxyethyl)-5-methyl-4-phenylthio-3(2H)-pyridazinone], 180 to 182 °C.

The next series concerns neutrophils isolated from human peripheral blood. The series is described as follows: Test of neutrophil adhesion inhibitory activity (fMLP-induced adhesion to keyhole limpet hemocyanin-coated plate). The format is cell-based. The note with it: Neutrophil, fluorescence-labeled, fMLP final concentration of 50 nM, plate coated with keyhole limpet hemocyanin, 37° C., read-out: Test of neutrophil adhesion inhibitory (50% inhibition concentration) IC50. As to the method: Test Example (Test of Neutrophil Adhesion Inhibitory Activity)
To a 96 hole culture plate coated with keyhole limpet hemocyanin were added Dulbecco modified Eagle's media (DMEM, 25 μl) containing various concentrations of the test substance. The neutrophils isolated from human peripheral blood were labeled with fluorescence by means of 5,6-carboxyfluorescein diacetate, suspended into DMEM in a concentration of 1×10^6 cells/ml, and inoculated to the above plate in an amount of 50 μl. Then, after the addition of 25 μl of formylmethionyl-leucyl-phenylalanine (hereinafter referred to as “fMLP”) (final concentration of 50 nM), the cells were cultured at 37° C. for a certain period of time to induce the adhesion of the neutrophils to the plate. After culturing, the plate was washed with phosphate-buffered physiological saline to remove the neutrophils which were not adhered. The adhered neutrophils were dissolved and then the fluorescence intensity was measured. Using the data of a non-stimulated group where the stimulation with fMLP was not carried out and an fMLP-stimulated group where the stimulation was carried out, the adhesion inhibition rate at each concentration of the test substance was determined according to the following equation. From the concentration-inhibition curve, 50% inhibitory concentration (IC50) was calculated.
Adhesion inhibition rate (%)=(Fmax−Fx)/(Fmax−Fo)×100
Fx: the fluorescence intensity of the group treated with a test substance
Fmax: the fluorescence intensity of the fMLP-stimulated group
Fo: the fluorescence intensity of the non-stimulated group
For `CC(=O)c1nn(-c2cccc(Cl)c2)c(=O)c(Sc2ccccc2)c1C` [Compound 1-64, 6-acetyl-2-(3-chlorophenyl)-5-methyl-4-phenylthio-3(2H)-pyridazinone], the IC50 amounted to 0.004 µM.
The same measure, in the same setting: the result for `CC(=O)c1nn(-c2cccc(Cl)c2)c(=O)c(S(=O)(=O)c2ccccc2)c1C` [Compound 1-83, 6-acetyl-2-(3-chlorophenyl)-5-methyl-4-phenylsulfonyl-3(2H)-pyridazinone] reads 0.012 µM; that for `CC(=O)c1nn(-c2cccc(Cl)c2)c(=O)c(-c2cccs2)c1C` [Compound 1-97, 6-acetyl-2-(3-chlorophenyl)-5-methyl-4-(2-thienyl)-3(2H)-pyridazinone], 0.011 µM; that for `Cc1c(C(C)O)nn(-c2cccc(Cl)c2)c(=O)c1Sc1ccccc1` (centres unmarked) [Compound 6-01, 2-(3-chlorophenyl)-6-(1-hydroxyethyl)-5-methyl-4-phenylthio-3(2H)-pyridazinone], 0.009 µM.

Still in this series, the particulars now being: fluorescence-labeled, fMLP final concentration of 50 nM, plate coated with keyhole limpet hemocyanin, 37° C., read-out: Test of neutrophil adhesion inhibitory (50% inhibition concentration) IC50.
Turning to `CC(=O)c1nn(-c2cccc(Cl)c2)c(=O)c(Sc2ccccc2Cl)c1C` [Compound 1-01], the IC50 is 0.016 µM.
On the same count and under the same terms, the result for `CC(=O)c1nn(-c2cccc(Cl)c2)c(=O)c(Sc2ccc(Cl)cc2)c1C` [Compound 1-03] reads 0.027 µM.
Still for that read-out and setting: to `COc1ccccc1Sc1c(C)c(C(C)=O)nn(-c2cccc(Cl)c2)c1=O` [Compound 1-04] belongs 0.619 µM; to `COc1cccc(Sc2c(C)c(C(C)=O)nn(-c3cccc(Cl)c3)c2=O)c1` [Compound 1-05], 0.032 µM.
Regarding `COc1ccc(Sc2c(C)c(C(C)=O)nn(-c3cccc(Cl)c3)c2=O)cc1` [Compound 1-06], the IC50 is 0.04 µM.
Take `CC(=O)c1nn(-c2cccc(Cl)c2)c(=O)c(Sc2ccc(F)cc2)c1C` [Compound 1-07]: the IC50 worked out at 0.02 µM.
With `CC(=O)c1nn(-c2cccc(Cl)c2)c(=O)c(Sc2ccc(C)cc2)c1C` [Compound 1-08], the IC50 came out at 0.139 µM.
In the case of `CC(=O)c1nn(-c2cccc(Cl)c2)c(=O)c(Sc2ccc([N+](=O)[O-])cc2)c1C` [Compound 1-10], the IC50 amounted to 0.093 µM.
On to `CC(=O)c1nn(-c2cccc(Cl)c2)c(=O)c(Sc2ccccn2)c1C` [Compound 1-11], for which the IC50 worked out at 0.079 µM.
As for `CSc1c(C)c(C(C)=O)nn(-c2cccc(Cl)c2)c1=O` [Compound 1-15], the IC50 was determined as 0.058 µM.
Same read-out and setting: to `CC(=O)c1nn(-c2cccc(Cl)c2)c(=O)c(SC(C)(C)C)c1C` [Compound 1-17] belongs 0.019 µM; to `CC(=O)c1nn(-c2ccc(F)cc2)c(=O)c(Sc2ccc(F)cc2)c1C` [Compound 1-20], 0.005 µM; to `CC(=O)c1nn(-c2ccc(F)cc2)c(=O)c(Sc2ccccn2)c1C` [Compound 1-21], 0.196 µM.
In the case of `CC(=O)c1nn(-c2ccc(F)cc2)c(=O)c(Sc2cccnc2)c1C` [Compound 1-22], the IC50 is 0.009 µM.
Still for that read-out and setting: to `CC(=O)c1nn(-c2ccc(F)cc2)c(=O)c(Sc2cccnc2)c1C` [Compound 1-23] belongs 0.006 µM; to `CC(=O)c1nn(-c2ccc(F)cc2)c(=O)c(Sc2ccncc2)c1C` [Compound 1-24], 0.014 µM.
On to `CC(=O)c1nn(-c2ccc(F)cc2)c(=O)c(Sc2ccncc2)c1C` [Compound 1-25], for which the IC50 was determined as 0.01 µM.
Still for that read-out and setting: to `CC(=O)c1nn(-c2cccnc2)c(=O)c(Sc2ccc(F)cc2)c1C` [Compound 1-31] belongs 0.055 µM; to `CC(=O)c1nn(-c2cccnc2)c(=O)c(Sc2ccncc2)c1C` [Compound 1-32], 0.165 µM; to `CC(=O)c1nn(-c2cccnc2)c(=O)c(Sc2ccccc2)c1C` [Compound 1-68], 0.007 µM.
Still for that read-out and setting: the result for `CC(=O)c1nn(-c2ccc(Cl)cc2)c(=O)c(Sc2ccccc2)c1C` [Compound 1-69] reads 0.222 µM.
On the same count and under the same terms, to `CC(=O)c1nn(-c2cccc(Cl)c2)c(=O)c(Oc2ccccc2)c1C` [Compound 1-70] belongs 0.018 µM; to `CC(=O)c1nn(-c2cccc(Cl)c2)c(=O)c(Oc2ccc(F)cc2)c1C` [Compound 1-73], 0.032 µM.
Turning to `CC(=O)c1nn(-c2cccc(F)c2)c(=O)c(Oc2ccc(F)cc2)c1C` [Compound 1-74], the IC50 turned out to be 0.048 µM.
As to `O=C(O)c1cc(CSc2ccc(F)cc2)c(=O)n(-c2cccc(Cl)c2)n1` [Compound 1-80, 1-(3-chlorophenyl)-5-(4-fluorophenylthio)-methyl-6-oxohydropridazin-3-carboxylic acid], the IC50 came out at 0.668 µM.
Consider `CC(=O)c1nn(-c2cccc(Cl)c2)c(=O)c([S+]([O-])c2ccccc2)c1C` (centres unmarked) [Compound 1-84], for which the IC50 turned out to be 0.01 µM.
On the same count and under the same terms, to `CC(=O)c1nn(-c2cccc(F)c2)c(=O)c(-c2cccs2)c1C` [Compound 1-98] belongs 0.656 µM.
On the same count and under the same terms, to `CC(=O)c1nn(-c2ccc(F)cc2)c(=O)c(-c2cccs2)c1C` [Compound 1-100] belongs 0.41 µM; to `CC(=O)c1nn(-c2cccnc2)c(=O)c(-c2cccs2)c1C` [Compound 1-102], 0.31 µM.
As for `CC(=O)c1nn(-c2ccc(F)cc2)c(=O)c(OCc2ccccn2)c1C` [Compound 1-113], the IC50 was found to be 0.358 µM.
Still for that read-out and setting: the result for `CC(=O)c1nn(-c2ccc(F)cc2)c(=O)c(OCc2ccncc2)c1C` [Compound 1-115] reads 0.044 µM; that for `CC(=O)c1nn(-c2ccc(F)cc2)c(=O)c(OCc2cc[n+]([O-])cc2)c1C` [Compound 1-130, 6-acetyl-2-(4-fluorophenyl)-5-methyl-4-((4-pyridyl N-oxide)methoxy)-3(2H)-pyridazinone], 0.138 µM.
Turning to `CC(=O)c1nn(-c2ccc[n+]([O-])c2)c(=O)c(Sc2ccc(F)cc2)c1C` [Compound 1-134, 6-acetyl-4-(4-fluorophenylthio)-5-methyl-2-(3-pyridyl N-oxide)-3(2H)-pyridazinone], the IC50 turned out to be 0.463 µM.
Turning to `CC(=O)Nc1ccc(Sc2c(C)c(C(C)=O)nn(-c3ccc[n+]([O-])c3)c2=O)cc1` [Compound 1-151], the IC50 came to 0.975 µM.
`Cc1c(C(C)O)nn(-c2ccc(F)cc2)c(=O)c1Sc1ccncc1` (centres unmarked) [Compound 6-02]: the IC50 was 0.306 µM.
